# Experimental data as given in patent publication US20040002465A1, “Polyene macrolide derivatives, use for vectoring molecules” (UNIVERSITE PIERRE ET MARIE CURIE, priority 1998, published 2004).
# How the values were obtained:
# [1] = system: ATCC 10261 Candida albicans; assay: Antifungal activity, growth inhibition of Candida albicans culture; format: cell-based; conditions: concentration inducing 50% inhibition of strain growth; liquid Sabouraud medium, 24 hours at 30° C., spectrophotometry at 660 nm
# Procedure: More particularly, each compound was incubated at different concentrations with a culture of ATCC 10261 Candida albicans (inoculum, […]) in liquid Sabouraud medium for 24 hours at 30° C. Cell growth was then measured by spectrophotometry at a wavelength of 660 nm.
# 3T3 cells [2] = assay: Toxicity of AmA with or without antisense oligonucleotide, MTT cellular viability; conditions: 4 hours at 37° C.
# [3] = system: 27-mer oligonucleotide (ODN) in 10% (v/v) foetal calf serum; assay: Seric degradation of delivered oligonucleotide, gel autoradiography; conditions: +/− charge ratio 10, 10% (v/v) foetal calf serum, 37° C., up to 16 hours; versus non delivered ODN
# Procedure: A 27-mer oligonucleotide (ODN) was rendered radioactive by labelling at the 5′ end with ^32P using a standard procedure (Pharmacia) using T4 polynucleotide kinase and ^32(γ)ATP. A small quantity of this ^32P labelled ODN was mixed with cold ODN. AmA was added in a concentration such that the +/− charge ratio was 10 and the complex was allowed to form at ambient temperature for 30 minutes. A sample containing no AmA constituted the control (non delivered ODN). ODN degradation was triggered at time 0 at 37° C. by adding 10% (v/v) foetal calf serum in which the enzymatic activity was essentially 3′-exonucleasic (Sirotkin, Cooley et al., 1978). At intervals, samples were removed for which the action of the enzymes was stopped by adding formamide and placing the tube in ice. The reaction wsa stopped after 4, 6, 8 and 16 hours of incubation with the serum. The samples were then migrated on a denaturing (7 M urea) 20% polyacrylamide gel.
# [4] = system: P-gp in NIH-MDR G185 cells (3T3 R); format: cell-based, human
# 3T3 cells [5] = assay: Internalisation of FITC-labelled antisense oligonucleotide, confocal microspectrofluorimetry; format: cell-based; conditions: 4 hours
# MCF 7 cells = assay: Internalisation of FITC-labelled anti-gene oligonucleotide; format: cell-based, human; conditions: charge ratio 5, compared with AmE, Lipofectine or free oligonucleotides
# Chain of P-gp in NIH-MDR G185 cells (3T3 R) (P08183 whole entry): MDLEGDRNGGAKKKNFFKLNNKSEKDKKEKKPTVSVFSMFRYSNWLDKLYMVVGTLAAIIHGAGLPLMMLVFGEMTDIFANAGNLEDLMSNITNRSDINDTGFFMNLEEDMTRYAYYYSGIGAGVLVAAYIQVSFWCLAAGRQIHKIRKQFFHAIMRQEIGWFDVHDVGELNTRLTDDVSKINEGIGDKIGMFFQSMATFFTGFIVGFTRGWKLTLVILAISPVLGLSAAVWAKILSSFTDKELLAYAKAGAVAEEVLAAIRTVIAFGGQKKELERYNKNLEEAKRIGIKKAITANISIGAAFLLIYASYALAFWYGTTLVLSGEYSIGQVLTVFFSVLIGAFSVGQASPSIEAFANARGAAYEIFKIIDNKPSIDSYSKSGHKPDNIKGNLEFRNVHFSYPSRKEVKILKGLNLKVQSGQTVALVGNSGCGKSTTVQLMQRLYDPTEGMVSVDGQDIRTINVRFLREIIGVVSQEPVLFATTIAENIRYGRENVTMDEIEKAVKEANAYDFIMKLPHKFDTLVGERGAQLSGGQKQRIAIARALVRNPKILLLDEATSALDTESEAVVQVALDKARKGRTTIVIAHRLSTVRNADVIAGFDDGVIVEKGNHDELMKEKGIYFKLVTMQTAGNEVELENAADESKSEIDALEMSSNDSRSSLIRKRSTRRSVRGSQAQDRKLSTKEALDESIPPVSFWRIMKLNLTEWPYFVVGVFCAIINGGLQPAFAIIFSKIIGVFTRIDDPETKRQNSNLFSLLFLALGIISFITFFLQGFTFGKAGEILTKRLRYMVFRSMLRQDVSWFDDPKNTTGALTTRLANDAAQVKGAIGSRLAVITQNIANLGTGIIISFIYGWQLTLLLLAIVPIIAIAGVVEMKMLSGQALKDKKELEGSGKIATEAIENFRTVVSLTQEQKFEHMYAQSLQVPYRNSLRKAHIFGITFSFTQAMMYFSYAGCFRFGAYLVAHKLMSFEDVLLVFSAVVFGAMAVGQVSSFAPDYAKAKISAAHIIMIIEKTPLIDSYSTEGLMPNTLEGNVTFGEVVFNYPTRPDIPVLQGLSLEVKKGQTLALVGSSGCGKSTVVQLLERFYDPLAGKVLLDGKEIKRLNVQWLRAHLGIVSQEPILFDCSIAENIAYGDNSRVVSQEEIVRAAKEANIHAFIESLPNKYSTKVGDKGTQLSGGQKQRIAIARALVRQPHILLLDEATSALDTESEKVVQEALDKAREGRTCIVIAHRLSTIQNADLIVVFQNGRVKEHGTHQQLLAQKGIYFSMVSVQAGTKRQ
Molecule,IC50 [1] [µg/mL],also measured
2-dimethylaminoethyl ester of amphotericin B [AMEE],0.08,–
"CC1C=CC=CC=CC=CC=CC=CC=CC(OC2OC(C)C(O)C(N)C2O)CC2OC(O)(CC(O)CC(O)C(O)CCC(O)CC(O)CC(=O)OC(C)C(C)C1O)CC(O)C2C(=O)N1CCN(C)CC1 (stereo not drawn) [AMPA, Amphotericin B B-4-methylpiperizyne amide]",0.015,–
"CC1C=CC=CC=CC=CC=CC=CC=CC(OC2OC(C)C(O)C(N)C2O)CC2OC(O)(CC(O)CC(O)C(O)CCC(O)CC(O)CC(=O)OC(C)C(C)C1O)CC(O)C2C(=O)NCCc1ccccn1 (stereo not drawn) [AMPEA, Amphotericin B 2-(2-pyridyl)ethylamide]",0.015,–
Amphotericin B 3-dimethylaminopropyl ester [AMPE],0.10,–
Amphotericin B (N^2-lysyllysine methylester) amide [AMDLA],0.12,–
Amphotericin B N1-sperminylamide [AMSA],0.10,–
Amphotericin B dimethylaminopropylamide [AMA],–,"concentration below which cell growth appears to have been stimulated (3T3 cells [2]; MTT): below 10^−5 M; concentration below which no toxicity was observed (cellular viability, MTT) (3T3 cells [2]; serum-free DMEM, AmA in the presence or absence of oligonucleotide): below 2×10^−5 M; seric degradation of the delivered oligonucleotide [3]: slowed that degradation; synthesis of P-gp, possible vector effect [4]: did not itself inhibit synthesis of P-gp; intracellular distribution of fluorescence (3T3 cells [5]; nucleus versus cytoplasm): distributed homogeneously inside the cells; internalisation of fluorescent oligonucleotide (fluorescence intensity of cells) (3T3 cells [5]; AmA 1×10^−5 M and 2×10^−5 M, compared with AmE, Lipofectine (20 μg/ml) or the oligonucleotides alone): much greater internalisation; internalisation of fluorescent oligonucleotide (fluorescence intensity of cells) (MCF 7 cells): much greater internalisation"
Amphotericin B-2-(morpholyl)ethylamide [AMMEA],0.013,–
L-aspartate salt of OAMA [OAMA L-aspartate],0.17,–
N-(1-piperdinepropionyl) AME [PAME],0.15,–
N-(4-methyl-1-piperazinepropionyl) AMPA [PAMPA],0.17,–
N-(4-methyl-1-piperazinepropionyl)AME [PNAME],0.16,–
"N-(Nα, Nα, Nα,Nε, Nε, Nε,-hexamethyl) AME [MLAME]",0.15,–
N-(N′-3-dimethylaminopropyl-succinimido) amphotericin B methyl ester [SAME],0.125,–
N-ornithyl-AMA [OAMA],0.15,–
